Reference: patent US9307768B2, “Synergistic combination of a flurochloridone compound and IPBC for dry film protection” (priority 2013, dated 2016)

Columns and labels:
[1] = system: Stichococcus bacillaris SAG 379-1a; experiment: Algal efficacy testing of dry paint film (modified ASTM 5589, 6-well plates); type: cell-based; details: 3 weeks; for Total conc: total biocide concentration in paint reaching pass level (at least 75% inhibition)
Method: (§1) Slurries containing 33% antimicrobial active ingredient (flurochloridone) were post added to a white, acrylic/silicone based outdoor paint free of biocides to give a total active ingredient concentration of 10000 and 1000 ppm respectively. ROCIMA™ 250 (40% IPBC) was post added to a white, acrylic/silicone based outdoor paint free of biocides to give a total active ingredient concentration of 10000 and 1000 ppm respectively. These paints were then diluted with an antimicrobial free acrylic/silicone based paint and mixed to prepare targeted concentrations of antimicrobial compounds for the testing. The total biocides concentrations tested were 125, 250, 500, 1000, 2000 and 5000 ppm. After biocides addition or dilution, the paints were mixed 90 seconds with the horse power shaker (AXEL 75M3372/ Agitateur SO-10MI) until uniformity was achieved. Paints containing different antimicrobial compounds at the same levels were mixed together in order to obtain the desired ratio of antimicrobial compounds. After one day, the paints were applied to Schleicher & Schuell filter paper at 280 μm wet film thickness and dried for 3 days at room temperature avoiding direct exposure to sunlight. Square discs (1.6 cm×1.6 cm) were cut out from each panel and were used as the substrate for algal efficacy tests. This sample size allowed for an agar border when the sample disc was placed into the well of the test plate.
(§2) Algal efficacy was tested according to modified ASTM 5589 which is a standard accelerated test method for determining resistance of various coatings (including paints) to algal defacement. To accommodate for high-throughput screening, this method was scaled down from petri dishes to 6-well plates. Bold Modified Basal Freshwater Nutrient Solution was used as growth medium. A single coated filter paper coupon was placed with a pair of sterile forceps at the center of the agar plug (on top) with the painted surface facing upwards. Algal inoculums were prepared by mixing equal concentrations (1×10^6 cfu/ml) and equal volumes of exponentially growing algae cultures.
(§3) Each well that contains a tested coupon was inoculated with 1750 μl of algal suspensions (1×10^6 cfu/ml) making sure that the whole surface (paint film as well as the agar surrounding it) was evenly covered. The plates were incubated at room temp (21° C.-25° C.) with cyclic exposure to light and dark phases, for a period of three weeks. The total area inhibited was evaluated at the end of each week according to percent area covered in 5% increments.
(§4) At the end of the three week incubation period, the samples were scored for percent inhibition regarding color intensity compared to the blank sample.
(§5) The SI is calculated based on F. C. Kull et.
(§6) The minimal targeted inhibition was set at 75%, meaning a coupon with at least 75% algal growth inhibition was considered as a pass.

Chlorella sp. ATCC 7516 = experiment: as above; type: cell-based; details: 3 weeks; for Total conc: total biocide concentration in paint reaching pass level (at least 75% inhibition)
Method: as §1, §2, §3, §4, §5, §6

SMILES | inhibition at 5000 ppm ([1]; Stichococcus bacillaris, 504 h, total conc 5000 ppm) | Total conc [1] | inhibition at 5000 ppm (Chlorella sp. ATCC 7516; 504 h, total conc 5000 ppm) | Total conc (Chlorella sp. ATCC 7516) | % inhibition ([1]; total conc 2000 ppm) | % inhibition (Chlorella sp. ATCC 7516; total conc 2000 ppm)
O=C1C(Cl)C(CCl)CN1c1cccc(C(F)(F)F)c1 (centres unmarked) [Flurochloridone, 3-chloro-4-(chloromethyl)-1-[3-(trifluoromethyl)phenyl]-2-pyrrolidinone] | 90% | 5000 ppm | 85% | 5000 ppm | – | –
CCCCNC(=O)OCC#CI [IPBC, 3-Iodo-2-propynyl-butylcarbamate] | – | 2000 ppm | – | 2000 ppm | 90% | 85%
